# Laboratory results from patent publication US6803191B2, “Candida albicans two-component hybrid kinase gene, CaNik1, and use thereof” (University of Iowa Research Foundation, priority 1997, dated 2004).
# Marks after values point to notes of the source that are not given here.
# Test system: homozygous deletion mutant (HH80)
# Assay: Growth of CaNik1 deletion mutant HH80 spot plated on agar plates with supplements (osmotic agents, inhibitors, carbon sources)
# Assay type: cell-based, Candida albicans
# Settings: for Differential sensitivity: growth of mutant strain HH80 versus control strains CAI8 and CAI8U5: agar with modified Lee's medium plus ingredient, 25° C. and 37° C., three independent experiments; for Phenotypic effect in HH80: growth on agar plates: Lee's modified medium or YPD, 2 or 3 days at 25° C. and 37° C.
# Experimental: Finally, growth of the CaNik1 deletion mutant HH80 was tested at 25° C. and 37° C. for differential sensitivity to osmotic strength and a variety of inhibitors.
Compound,Differential sensitivity: growth of mutant strain HH80 versus control strains CAI8 and CAI8U5,other results
Cn1c(=O)c2c(ncn2C)n(C)c1=O [Caffeine],no qualitative differences,
O=S(=O)([O-])c1cc(Nc2nc(Nc3ccccc3)nc(N(CCO)CCO)n2)ccc1/C=C/c1ccc(Nc2nc(Nc3ccccc3)nc(N(CCO)CCO)n2)cc1S(=O)(=O)[O-].[Na+].[Na+] [Calcofluor],no qualitative differences,Phenotypic effect in HH80: growth on agar plates (Calcofluor 20-40 μg/mL): +++^v
[Cl-].[K+] [KCl],no qualitative differences,Phenotypic effect in HH80: growth on agar plates (1 M KCl): ++
O=S(=O)([O-])[O-].[Mg+2] [MgSO4],no qualitative differences,Phenotypic effect in HH80: growth on agar plates (0.5 m MgSO4): ++
[Cl-].[Na+] [NaCl],no qualitative differences,Phenotypic effect in HH80: growth on agar plates (1 M NaCl): ++; Phenotypic effect in HH80: growth on agar plates (1.5 M NaCl): +
OC[C@@H](O)[C@@H](O)[C@H](O)[C@@H](O)CO [Sorbitol],no qualitative differences,Phenotypic effect in HH80: growth on agar plates (1.2 M Sorbitol): ++++
OC[C@@H](O)[C@H](O)[C@@H](O)CO [Xylitol],,Phenotypic effect in HH80: growth on agar plates (1 M Xylitol): ++++
polymyxin B,no qualitative differences,
